Source: patent publication US12571052B2, “Immunomodulatory RNA” (THE TRUSTEES OF THE UNIVERSITY OF PENNSYLVANIA, priority 2017, dated 2026)
Entries after “also recorded” stand apart in the source; their conditions may differ.

B1: SRP9: Recombinant SRP9 protein, GST tag cleaved with TEV protease (protein, UniProt P49458 2-86, looked up)
Signal recognition particle 9 …: PQYQTWEEFSRAAEKLYLADPMKARVVLKYRHSDGNLCVKVTDDLVCLVYKTDQAQDVKKIEKFHSQLMRLMVAKEARNVTMETE

Tests used:
B16-F10 tumor cells [1] = test: B16-F10/MEF co-implantation, tumor immune populations by flow cytometry; type: in vivo, C57BL/6 mice
Description: Mice were implanted with tumors as described FIGS. 25A-25B. Tumors were harvested 13 days later and assessed for infiltration of macrophages or myeloid derived suppressor cells (MDSCs). Macrophages are considered Lin−, F4/80+, and CD11b+ cells. MDSCs are considered Lin−, F4/80−, CD11c−, CD11b+, and Ly6C+ cells. Tumors were treated with anti-CTLA4 blocking antibody (FIG. 26D) as described in FIGS. 25A and 25B, and tumors were harvested at d15 to measure M2 polarization of macrophages as marked by CD206.
Furthermore, mice were implanted with the same tumors and subsequently treated with the CSF1R inhibitor BLZ945. Polarization of macrophages and frequency of CD103+DCs were tested.
In addition, mice were implanted with tumors and treated with anti-CTLA4+/−CSF1Ri BLZ945. Tumors were harvested 13 days later and immune populations were assessed using an unbiased clustering of flow cytometry data.
Mice were implanted with B16-F10 tumor cells mixed 1:1 with MEFs or MEFs co-expressing SRP9/14 (FIG. 35B). Tumors were harvested 2 weeks post-injection and analyzed for immune cell populations. Unshielded RN7SL1 increased the frequency of dendritic cells, the percentage of CD103+ dendritic cells, the percentage of CD69+CD8+ T cells, and the percentage of PD1+CD8+ T cells in tumors (FIG. 35C). […] Without wishing to be bound by theory, a CSF1R inhibitor blocks M2 polarization and may synergize with unshielded RN7SL1.

B16-F10 tumor cells [2] = test: B16-F10/MEF co-implantation, tumor growth and survival under checkpoint blockade; type: in vivo, C57BL/6 mice; conditions: BLZ945 every 2 days for 2 weeks, anti-CTLA4 or anti-CTLA4 and anti-PD1, tumors with unshielded 7SL
Description: Wild type (WT) C57BL/6 mice were injected with 5×10^4 B16-F10 tumor cells subcutaneously in the flank with 5×10^4 MYC activated mouse embryonic fibroblasts (MEFs) or MYC activated MEFs co-expressing SRP9/14. MYC activation is inducible with 4-OHT and results in the secretion of exosomes containing unshielded 7SL1 RNA, while co-expression of SRP9/14 ensures the 7SL1 RNA remains relatively shielded, allowing measurement of the stimulatory capacity specifically of the unshielded form (Nabet B Y, et al. Cell. 2017; 170 (2): 352-366.e13). Mice were subsequently treated with the anti-CTLA-4 or anti-PD-1 antibody (or not), and then tumor growth was monitored by caliper. Endpoint criterion was considered a tumor measurement of 1.5 cm in any direction.
Tumors were implanted as described in FIGS. 25A-25B and treated with CSF1R inhibitor BLZ945 (Novartis) every 2 days for 2 weeks starting at day 0 to prevent M2 polarization of infiltrating myeloid cells. Mice were additionally treated with anti-CTLA4 (FIG. 27A) or anti-CTLA4 and anti-PD1 (FIGS. 27B and 27C) on days 5, 8, and 11. Tumor growth was monitored by caliper.

[3] = tested on: pancreatic ductal adenocarcinoma (PDA) tumor cells; test: PDA/MEF co-injection, tumor growth under ICB therapy; type: in vivo, mice; conditions: BLZ945 with unshielded 7SL RNA, anti-CTLA4 and anti-PD1
Description: CSF1R inhibition in combination with unshielded 7SL RNA sensitizes PDA tumors to ICB therapy (FIGS. 28A-28B). 1×10^5 pancreatic ductal adenocarcinoma (PDA) tumor cells were co-injected with 1×10^5 MEFs (“myc-ER”) or MEFs co-expressing SRP9/14 (“myc-ER/SRP”) treated with 4OHT or EtOH. Mice were then treated with a combination of anti-CTLA4 and anti-PD1 antibodies (FIG. 28A) or a triple combination of anti-CTLA4, anti-PD1, and BLZ945 (FIG. 28B) using treatment schedules outlined in the study shown in FIGS. 27A-27C. Tumor growth was monitored by caliper.

recombinant RIG-I = target: T1, recombinant RIG-I (Homo sapiens, UniProt O95786); test: RIG-I ATPase assay (ATP hydrolysis); type: biochemical
T1 sequence (O95786 1-925): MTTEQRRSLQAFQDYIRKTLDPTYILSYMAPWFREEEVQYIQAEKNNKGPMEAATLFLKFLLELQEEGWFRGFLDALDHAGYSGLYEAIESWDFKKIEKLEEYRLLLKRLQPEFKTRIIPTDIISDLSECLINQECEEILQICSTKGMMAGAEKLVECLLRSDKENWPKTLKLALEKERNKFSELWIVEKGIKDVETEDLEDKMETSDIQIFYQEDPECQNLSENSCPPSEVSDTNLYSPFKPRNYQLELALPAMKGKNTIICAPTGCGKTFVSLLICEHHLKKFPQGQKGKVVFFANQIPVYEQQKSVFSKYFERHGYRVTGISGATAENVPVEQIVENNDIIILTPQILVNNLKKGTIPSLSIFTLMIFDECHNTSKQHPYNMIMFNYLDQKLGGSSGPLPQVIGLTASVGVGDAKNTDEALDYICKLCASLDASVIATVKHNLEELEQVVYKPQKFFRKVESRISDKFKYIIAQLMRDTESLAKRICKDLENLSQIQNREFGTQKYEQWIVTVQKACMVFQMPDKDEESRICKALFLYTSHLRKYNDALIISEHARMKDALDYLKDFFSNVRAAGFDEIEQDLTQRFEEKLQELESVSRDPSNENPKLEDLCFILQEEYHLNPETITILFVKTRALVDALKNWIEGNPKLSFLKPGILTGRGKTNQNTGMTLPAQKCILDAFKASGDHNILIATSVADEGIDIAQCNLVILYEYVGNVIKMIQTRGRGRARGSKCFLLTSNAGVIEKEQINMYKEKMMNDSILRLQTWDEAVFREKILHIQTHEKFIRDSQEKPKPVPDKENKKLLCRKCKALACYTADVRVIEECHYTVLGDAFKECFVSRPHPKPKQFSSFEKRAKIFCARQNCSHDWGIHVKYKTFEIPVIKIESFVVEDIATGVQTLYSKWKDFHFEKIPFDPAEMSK
Description: RIG-I ATPase Assays. RIG-I ATPase assays were performed as previously described (Devarkar et al. (2016) Proc. Natl. Acad. Sci. 113, 596-601). In brief, increasing amounts of RNA (10-60 nM) were added to a constant quantity of RIG-I (5 nM) in the presence of 1 mM ATP. ATP hydrolysis was measured with the EnzChek Phosphate Assay Kit (ThermoFisher) after 60-90 minutes at 37° C. ATP hydrolysis was then measured by absorbance of 360 nm compared to background. A 19-mer 5′triphosphate dsRNA (Invivogen) and DVG396 were used as positive controls and a 19-mer 5′OH dsRNA (Invivogen) and an in vitro transcribed 300 bp ssRNA stretch of GAPDH (GAPDH300) were used as negative controls.

Molecule	activated CD4+ T cells in tumors (B16-F10 tumor cells [1]; anti-CTLA4 +/- CSF1Ri, high unshielded 7SL, 13 days)	frequency of M2 macrophages in the tumor (B16-F10 tumor cells [1]; high levels of unshielded 7SL RNA)	infiltration of cross-presenting CD103+ DCs (B16-F10 tumor cells [1]; high levels of unshielded 7SL RNA, CSF1R inhibition)	response to checkpoint blockade with CSF1R inhibition (B16-F10 tumor cells [2])	response to checkpoint blockade with CSF1R inhibition (B16-F10 tumor cells [2]; listed as small molecule inhibitor of CSF1R)	sensitization of PDA tumors to ICB therapy [3]	ATP hydrolysis by recombinant RIG-I after addition of SRP9 (recombinant RIG-I; SRP9 added to DVG396 or unrelated 5'ppp or 5'OH control RNAs)	ATP hydrolysis by recombinant RIG-I after addition of SRP9 (recombinant RIG-I; SRP9 added to in vitro transcribed RN7SL1)
CNC(=O)c1cc(Oc2ccc3nc(N[C@@H]4CCCC[C@H]4O)sc3c2)ccn1 [BLZ945]	markedly increased	decreased the frequency of M2 macrophages found in the tumor	improving the infiltration of cross-presenting CD103+DCs	allows tumors with high levels of unshielded 7SL to respond more robustly to checkpoint blockade; also recorded: enhanced the anti-tumor activity of an anti-PD1 antibody and an anti-CTLA-4 antibody	led to improved response in tumors with high levels of unshielded 7SL1	sensitizes PDA tumors to anti-PD-1 and anti-CTLA-4 antibody therapies	–	–
B1	–	–	–	–	–	–	did not influence	partially inhibited ATP hydrolysis by recombinant RIG-I
